Assay results from paper PMC6838151 (Scientific Reports, 2019).
In brackets after ≈: the same amount, converted by molar mass.

Legend:
[1] = tested on: hASCs (human adipose-derived stromal cells); test: Cytotoxicity IC50, TOX-8 resazurin assay, hASCs, 24 h; format: cell-based
Experimental: Human Adipose Tissue-derived Stem Cells (hASCs) were isolated from subcutaneous adipose tissue fragments harvested from non-diabetic female donors (age range 33–38, n = 2) during standard surgical procedure of total hip arthroplasty. Immediately after collection of tissue, the samples were placed in sterile tissue-transport medium (Hank’s Balanced Salt Solution (HBSS) supplemented with 1% Penicillin/Streptomycin/Amphotericin B solution (P/S/A). Mesenchymal stromal cell isolation was performed using enzymatic digestion of extracellular matrix with collagenase type I. Before digestion, tissue specimens were washed twice with HBSS and incubated in collagenase type I solution (1 mg/mL) at 37 °C for 40 min. The digest was subsequently centrifuged (1200 × g; 10 minutes; room temperature) and the cell pellet was resuspended in Dulbecco’s modified Eagle’s medium (DMEM) with Nutrient F-12 Ham, 10% of Fetal Bovine Serum (FBS), and 1% of P/S/A, transferred to a culture flask, and kept in culture under optimal conditions (37 °C in a humidified atmosphere of 5% CO2). The medium was refreshed every 2–3 days. At 80–90% confluence, the cells were passaged using trypsin solution (TrypLE Express, Life Technologies, California, USA). At passage 3, hASCs were collected and cellular phenotype was confirmed by the high expression of markers CD44, CD29, CD73, CD105 and low expression of CD45. Moreover, the trilineage differentiation capacity of ASCs was confirmed as previously described.
The IC50 values were determined using in vitro Toxicology TOX-8 Assay Kit (resazurin based) according to the manufacturer’s protocol. For this assay, cells were seeded in a 96-well plate at a density of 5 × 10^3 cells/well. The cells were pre-incubated in drug-free complete medium for 24 h before adding various concentrations of the compounds to be investigated. Stock solutions of the compounds were prepared in DMSO following serial dilutions in DMEM with Nutrient F-12 Ham complete medium. The cells exposure period was 24 h. After that time media were replaced with 10% v/v resazurin dye solution in fresh complete culture medium. Incubation was carried out for 2 h at 37 °C in the CO2 incubator. Reduction of the dye was measured spectrophotometrically at 600 nm and 690 nm reference wavelength (Epoch, Biotek). Absorbance measurements allowed the determination of viable treated cells relative to untreated controls using the inflection point of a dose-response graph. IC50 values were estimated as duplicates of triplicate readings in two independent experiments.

C. albicans CAF2-1 [2] = test: microbe, parasite or virus in culture; format: cell-based, Candida albicans; conditions: Candida albicans, CAF21, 48 h
Description: (§1) The C. albicans CAF2-1 (Genotype/Description: ura3Δ::imm434/URA3[89]) and DSY1050 (Genotype/Description: cdr1Δ::hisG/cdr1Δ::hisG/cdr2Δ::hisG/cdr2Δ::hisG/mdr1Δ::hisG-URA3-hisG/mdr1Δ::hisG[90]) strains used in this study were generous gift from D. Sanglard (Lausanne, Switzerland)[91],[92] whereas C. albicans B3 and Gu4 (Genotype/Description: clinical isolates fluconazole sensitive)[93]), B4 (Genotype/Description: Clinical isolate fluconazole resistant due to the overexpression of MDR1[93]) and Gu5 (Genotype/Description: Clinical isolate fluconazole resistant due to the overexpression of CDR1 and CDR2[93]) were a generous gift from prof. S. Milewski (Gdańsk, Poland)[94] and prof. J. Morschhäuser (Wurzburg, Germany)[93]. All strains were grown at 37 °C on Sabouraud medium (Biomerieux).
(§2) The antifungal activity was determined on the 96-well polystyrene microtiter plates (Sarstedt) according to Clinical and Laboratory Standards Institute M27-A3[95]. […] The compounds were dissolved in DMSO (10 mM) and then serially diluted in RPMI-1640 (ThermoFisher) medium to obtain the final concentration range. Inocula of all strains were prepared as suspensions with turbidity of 0.5 McFarland standard in sterile 0.85% saline and diluted in RPMI-1640. After inoculation, each well contained appr. 5 × 10^2 CFU/mL. The plates were cultivated for 48 h at 37 °C. Optical density was measured at A490nm using a microplate reader ASYS UVM 340 (Biogenet).

C. albicans B4 = test: microbe, parasite or virus in culture; format: cell-based, Candida albicans; conditions: Candida albicans, B4, 48 h
Description: as §1, §2

C. albicans DSY1050 = test: microbe, parasite or virus in culture; format: cell-based, Candida albicans; conditions: Candida albicans, DSY1050, 48 h
Description: as §1, §2

C. albicans Gu5 = test: microbe, parasite or virus in culture; format: cell-based, Candida albicans; conditions: Candida albicans, GU5, 48 h
Description: as §1, §2

C. albicans CAF2-1 [3] = test: microbe, parasite or virus in culture; format: cell-based, Candida albicans; conditions: Candida albicans, CAF21, read-out: Viability of C. albicans CAF2-1
Experimental: The synergistic effects of KeOP/KeP with Flc were determined using the M27-A3 method with modifications. Flc and KeOP/KeP stock solutions in DMSO (10 mM) were (alone and simultaneously) diluted in RPMI-1640 medium to obtain final concentrations of^1/8; ^1/4; ^1/2; 1 × MIC50 towards C. albicans CAF2-1 strain in microdilution sterile plates (Sarstedt). Statistical significance analysis was performed using Student’s t-test ([…], unpaired) comparing viability in the presence of corresponding Flc concentrations with/without KeOP/KeP.

[4] = cited from earlier work
C. albicans Gu4 = test: microbe, parasite or virus in culture; format: cell-based; conditions: Candida albicans, GU4, 48 h
Description: as §1, §2

C. albicans B3 = test: microbe, parasite or virus in culture; format: cell-based; conditions: Candida albicans, B3, 48 h
Description: as §1, §2

OC(Cn1cncn1)(Cn1cncn1)c1ccc(F)cc1F [Flc, fluconazole, reference compound]
IC50 (cytotoxicity, hASCs viability) [1]: not cytotoxic in the tested concentration range
MIC50 (C. albicans CAF2-1 [2]): 6.25 µM (≈ 1.91 µg/mL)
MIC50 (C. albicans B4): 50 µM (≈ 15.3 µg/mL)
MIC50 (C. albicans DSY1050): 0.78 µM (≈ 0.239 µg/mL)
MIC50 (C. albicans Gu5): > 200 µM
viability at 0.78 µM (C. albicans CAF2-1 [3]): 86.9 ± 7.84%
viability at 1.56 µM (C. albicans CAF2-1 [3]): 71.3 ± 13.9%
viability at 3.13 µM (C. albicans CAF2-1 [3]): 73.8 ± 4.35%
viability at 6.25 µM (C. albicans CAF2-1 [3]): 38 ± 8.94%
fold less active in vitro than Ke [4]: approximately 16 fold
MIC50 (C. albicans Gu4): 6.25 µM (≈ 1.91 µg/mL)
MIC50 (C. albicans B3): 6.25 µM (≈ 1.91 µg/mL)
